Data published in patent US6433012B1, “Method for inhibiting inflammatory disease” (Large Scale Biology Corp., priority 1998, dated 2002).
Marks after values point to notes of the source that are not given here.

How the values were obtained:
[1] = test system: angiogenesis induced by hFGF-B in the chick chorioallantoic membrane (CAM); experiment: Chick chorioallantoic membrane (CAM) assay, 14C-proline incorporation into collagenous protein; type: in vivo; set-up: inhibition of hFGF-B-induced angiogenesis: dose or concentration left out as unconfirmed
Text: This example illustrates the anti-angiogenic properties of methyl-3,5-diiodo-4-(4′-methoxyphenoxy)benzoate in the chick chorioallantoic membrane assay (CAM). The endpoint of the CAM assay was a quantitative determination of basement membrane biosynthesis by measuring the incorporation of ^14C-proline into Type IV collagenous protein.
The CAM assay involves the development of live chick embryos in Petri dishes under special sterile conditions. Therefore, only limited numbers of embryos can be used for evaluation of compounds in a single experiment. For this reason, two separate assays were conducted to test the three Biosource compounds at three concentrations per compound. In this assay, a known angiogenesis inhibitor, 2-methoxyestradiol (2-ME), was used as the positive control, and human fibroblast growth factor (hFGF) was used to induce angiogenesis in the CAM.
For testing, a minimum amount of acetone-methanol (1:1) was added to the test compounds for sterilization. The acetone-methanol mixture was then evaporated to dryness in a sterile hood. The compounds were dissolved dimethyl sulfoxide (DMSO) first and then diluted with saline containing methylcellulose. The final concentrations were 2% DMSO and 0.5% methylcellulose. All test solutions were added to each CAM in […].
Fresh fertile eggs were incubated for three days in a standard egg incubator. On Day 3, eggs were cracked under sterile conditions and embryos were placed in 20×100 mm plastic Petri dishes and cultivated at 37° C. in an embryo incubator with a water reservoir on the bottom shelf. Air was continuously bubbled into the water reservoir by using a small pump so that the humidity in the incubator was kept constant. Observations were made daily to ensure that all embryos were healthy. Dead or unhealthy embryos were removed from the incubator immediately to avoid contamination. On Day 9, a sterile silicone ring cup was placed on each CAM and […] of ^14C-proline with or without the test compound plus 2.5 ng of hFGF dissolved in saline containing 0.5% methylcellulose was delivered into each ring cup in a sterile hood. 2-ME was tested in parallel to serve as a reference compound. After addition of test materials, the embryos were returned to the incubator and cultivation continued. On Day 12, all embryos were transferred to a cold room at 4-10° C. The antiangiogenic effect of each test compound was determined by using the collagenase assay (Maragoudakis, et al., J. Pharm. Exp. Ther. 251:679-682 (1989)) to measure ^14C-proline incorporation into collagenous protein.
With the embryos placed on ice, a piece of CAM 10 mm in diameter was cut off under each ring cup and placed in a separate tube. To each tube was added 1.0 mL of phosphate-buffered saline (PBS, pH 7.3) containing 0.11 mg cycloheximide and 0.17 mg dipyridyl. The tubes were placed in a boiling water bath for 10 min and then cooled to room temperature. The PBS in each tube was discarded after centrifugation at 3000× g for 10 min. The CAM residue was washed once with 3 mL of 15% TCA and then three times with 3 mL of 5% TCA. Centrifugation was carried out as described above between each washing. At this point all non-protein bound radioactivity was removed, and the CAM containing the newly synthesized ^14C-collagenous protein was suspended in 0.9 mL of 0.1 N NaOH and 1.1 mL of HEPES buffer at pH 7.4. The pH of the sample was neutralized with 0.8 N HCl, using phenol red as indicator.
To digest the ^14C-collagenous protein, 7.5 units of collagenase and 500 nmol of calcium chloride in […] of HEPES buffer was added to the above samples, and mixtures were incubated at 37° C. for 4 h. The reaction was stopped by adding 1.0 mL of 20% TCA containing 5 mg of tannic acid into each tube. After vortex mixing, the samples were centrifuged at 3000× g for 10 min. […]

[2] = test system: TNF-α mRNA in murine macrophage PU5-1.8 cell line; experiment: TNF-α mRNA in LPS-stimulated macrophages (Northern blot); type: cell-based
Procedure: The murine macrophage PU5-1.8 cell line was purchased from the American Type Culture Collection (ATCC, Rockville, Md.). Cells were grown in DMEM medium supplemented with […], 0.1 mM nonessential amino acids, 2 mM glutamine and 5% fetal bovine serum (Life Technologies, Staten Island, N.Y.). Cells were maintained in a humidified atmosphere of 5% CO2-95% air at 37° C. Cells were passages twice weekly by firmly tapping the side of the flask to dislodge the adherent cells. Both nonadherent and adherent cells were passages. Exponentially growing cells were seeded at 5×10 ^5/mL, 4mL per 60-mm dish 24 h prior to the experiment. Test compounds were delivered in 1 mL volumes of the medium added to each dish at the start of the experiment. All dishes were incubated at 37° C. in 5% CO2-95% air for 3 h.
Total RNA was isolated by the guanidinium-cesium chloride method as described in N. S. Waleh, J. Gallo, T. D. Grant, B. J. Murphy, R. H. Kramer and R. M. Sutherland. (1994) “Selective downregulation of integrin receptors in spheroids of squamous cell carcinoma” Cancer Res., 54:838-843. Five to 10 μg of total RNA was electrophoresed in 1% agarose gels containing 6% formaldehyde. Following electrophoresis, gels were stained with ethidium bromide to visualize the positions of 28S and 18S RNA. The RNAs were then transferred to nylon membranes (Amersham Hybond N) by capillary blotting and fixed to the filter by exposure to UV light. The blots were probed with ^32P-labeled cDNA sequences of human TNF-α obtained from the American Type Culture Collection (ATCC). The TNF-α cDNA was a 1.1 kb PstI fragment of plasmid pE4 in E. coli MM294 (ATCC 39894). Hybridizations were carried out at 42° C. in 50% formamide, 5×SSC, 5×Denhardt's solution, 0.1% SDS, and 0.3 mg/mL salmon sperm DNA. Filters were washed by 1×SSC, 0.1% SDS, twice at room temperature for 15 min and once at 55° C. in 0.1×SSC, 0.1% SDS for 1 hr. Filters were exposed to X-ray film at −70° C. using an intensifying screen (Coronex Hi-Plus).
Hybridized bands were quantified by analyzing the images obtained by using a video densitometer (Applied Imaging Corporation, Santa Clara, Calif.). Film densities were calibrated using an optical-density wedge.

[3] = test system: MCF-7 human breast carcinoma cells; experiment: Chromosome condensation / prometaphase arrest; type: cell-based; details: 1 μM for 24 h
purified tubulin = details: as a function of colchicine or vinblastine concentration
Text: Tubulin-binding antimitotic drugs interact with the protein at diverse sites.

[4] = Table 1 experiment, dose 8.3 μg/CAM
[5] = Table 1 experiment, dose 25 μg/CAM
[6] = Table 1 experiment, dose 75 μg/CAM
[7] = Table 2 experiment, dose 8.3 μg/CAM
[8] = Table 2 experiment, dose 25 μg/CAM
[9] = Table 2 experiment, dose 75 μg/CAM

COc1cc2c(cc1O)CC[C@@H]1[C@@H]2CC[C@]2(C)[C@@H](O)CC[C@@H]12 [2-Methoxyestradiol, 2-methoxyestradiol, reference compound]
inhibition of hFGF-B-induced angiogenesis [1]: 38%
% Inhibition [1, 4]: 9%
^14C-Proline Incorporated into Collagenous Protein (mean ± S.E.) [1, 4]: 5711 ± 1469 cpm/mg-protien
% Inhibition [1, 5]: 20%
^14C-Proline Incorporated into Collagenous Protein (mean ± S.E.) [1, 5]: 5068 ± 1609 cpm/mg-protien
% Inhibition [1, 6]: 38%
^14C-Proline Incorporated into Collagenous Protein (mean ± S.E.) [1, 6]: 3875 ± 891 cpm/mg-protien
% Inhibition [1, 7]: 6%
^14C-Proline Incorporated into Collagenous Protein (mean ± S.E.) [1, 7]: 10499 ± 1372 cpm/mg-protien
% Inhibition [1, 8]: 35%
^14C-Proline Incorporated into Collagenous Protein (mean ± S.E.) [1, 8]: 7303 ± 1424 cpm/mg-protien
% Inhibition [1, 9]: 38%
^14C-Proline Incorporated into Collagenous Protein (mean ± S.E.) [1, 9]: 6984 ± 1022^b cpm/mg-protien

COc1cc2c(c(OC)c1OC)-c1ccc(OC)c(=O)cc1[C@@H](NC(C)=O)CC2 [colchicine, reference compound]
inhibition of TNF-α mRNA accumulation ([2]; 10 μM added to LPS (100 ng/mL) treated cultures, 3 h): 68%
effect on TNF-α mRNA expression, compound only ([2]; 10 μM, without LPS, 3 h): no effect
total RNA integrity ([2]; cells treated with different concentrations): intact
chromosome condensation (prometaphase arrest) [3]: produced identical chromosome condensation patterns

CC[C@]1(O)C[C@@H]2CN(CCc3c([nH]c4ccccc34)[C@@](C(=O)OC)(c3cc4c(cc3OC)N(C)[C@H]3[C@@](O)(C(=O)OC)[C@H](OC(C)=O)[C@]5(CC)C=CCN6CC[C@]43[C@@H]65)C2)C1 [vinblastine]
effect of competitor on binding of 14C-labeled BTO-956 to tubulin (purified tubulin): had no effect
